pIC50: −log10 of the molar value.
Legend:
L1210 = assay: Tested for growth inhibition of L1210 leukemia cells; assay type: functional, cell-based; conditions: Mus musculus
Thymidylate synthase [1] = biological target: T1, Thymidylate synthase (Lactobacillus casei, UniProt P00469); assay: Inhibitory activity against thymidylate synthase of Lactobacillus casei; set-up: species or system Lacticaseibacillus casei
T1 sequence (P00469 whole entry): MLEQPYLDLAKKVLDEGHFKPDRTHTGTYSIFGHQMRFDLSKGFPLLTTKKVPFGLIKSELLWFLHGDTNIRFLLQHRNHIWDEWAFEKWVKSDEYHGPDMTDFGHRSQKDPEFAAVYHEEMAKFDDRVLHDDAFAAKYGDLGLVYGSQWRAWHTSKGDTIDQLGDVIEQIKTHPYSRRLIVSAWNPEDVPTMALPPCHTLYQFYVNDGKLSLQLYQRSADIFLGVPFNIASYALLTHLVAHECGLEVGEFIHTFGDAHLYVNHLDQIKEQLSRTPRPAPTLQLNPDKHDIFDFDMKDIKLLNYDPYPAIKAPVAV

Lacticaseibacillus casei [2] = assay: Tested for growth inhibition of Lactobacillus casei (MTX resistant); assay type: functional, organism-based
Dihydrofolate reductase = Dihydrofolate reductase (Lactobacillus casei, UniProt P00381); assay: Inhibitory activity against dihydrofolate reductase of Lactobacillus casei; set-up: species or system Lacticaseibacillus casei
Enterococcus faecium [3] = assay: Tested for growth inhibition of Streptococcus faecium (MTX resistant); assay type: functional, organism-based
Lacticaseibacillus casei [4] = assay: Tested for growth inhibition of Lactobacillus casei (ATCC […]); assay type: functional, organism-based
Enterococcus faecium [5] = assay: Tested for growth inhibition of Streptococcus faecium (ATCC 8043); assay type: functional, organism-based
Thymidylate synthase [6] = biological target: Thymidylate synthase (Escherichia coli, UniProt C3SWJ7); assay: Inhibitory activity against thymidylate synthase of Escherichia coli
Sequence of Thymidylate synthase (Escherichia coli, UniProt C3SWJ7) (C3SWJ7 whole entry): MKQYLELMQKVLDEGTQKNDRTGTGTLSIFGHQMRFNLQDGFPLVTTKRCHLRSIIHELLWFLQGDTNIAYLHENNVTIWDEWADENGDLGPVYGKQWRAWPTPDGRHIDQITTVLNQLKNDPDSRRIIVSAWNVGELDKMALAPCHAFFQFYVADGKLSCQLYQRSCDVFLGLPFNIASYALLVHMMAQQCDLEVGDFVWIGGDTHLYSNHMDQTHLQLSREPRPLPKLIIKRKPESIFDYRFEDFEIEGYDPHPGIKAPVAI

Sequence of Dihydrofolate reductase (P00381 whole entry): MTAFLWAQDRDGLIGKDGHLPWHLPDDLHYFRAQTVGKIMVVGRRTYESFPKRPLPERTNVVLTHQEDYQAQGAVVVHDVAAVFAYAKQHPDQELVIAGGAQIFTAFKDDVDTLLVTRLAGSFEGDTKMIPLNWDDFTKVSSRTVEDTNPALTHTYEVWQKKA

Structure (SMILES)	pIC50 (L1210)	pIC50 (Thymidylate synthase [1])	pIC50 (Lacticaseibacillus casei [2])	pIC50 (Dihydrofolate reductase)	pIC50 (Enterococcus faecium [3])	pIC50 (Lacticaseibacillus casei [4])	pIC50 (Enterococcus faecium [5])	pIC50 (Thymidylate synthase [6])
Nc1nc(O)c2nc(CNc3ccc(C(=O)NC(CCC(=O)O)C(=O)O)cc3)ccc2n1 (stereo unspecified)	5.88	4.85	5.69	4.92	6.53	8.85	9.52	–
Nc1nc(O)c2nc(CCNc3ccc(C(=O)NC(CCC(=O)O)C(=O)O)cc3)ccc2n1 (stereo unspecified)	4.06	3.80	6.48	3.66	5.96	7.72	7.68	–
Nc1nc(O)c2nc(CCNc3ccc(C(=O)NC(CCC(=O)O)C(=O)O)cc3)cnc2n1 (stereo unspecified)	–	–	–	–	–	6.66	5.66	–
Nc1nc(O)c2c(n1)NCC(CCNc1ccc(C(=O)NC(CCC(=O)O)C(=O)O)cc1)N2 (stereo unspecified)	–	–	–	–	–	7.89	8.82	5.70
CN(Cc1cnc2nc(N)nc(N)c2n1)c1ccc(C(=O)N[C@@H](CCC(=O)O)C(=O)O)cc1 [METHOTREXATE]	8.41	–	–	–	5.10	10.30	9.10	–
Nc1nc2c(c(=O)[nH]1)NC(CCNc1ccc(C(=O)NC(CCC(=O)O)C(=O)O)cc1)CC2 (stereo unspecified)	4.45	3.47	< 4.00	3.64	< 4.00	7.46	7.82	–
Nc1nc(O)c2c(n1)CCC(CNc1ccc(C(=O)NC(CCC(=O)O)C(=O)O)cc1)N2 (stereo unspecified)	–	4.12	< 5.40	4.26	5.99	8.57	8.80	–
